PubChem BioAssay (NCI)
Several values for one entry are separate records, joined by “and”; a condition that tells them apart may be missing. Equal entries are not always repeated.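 Test compounds were applied to cells in 96-well plates for 48 hours at 5 doses. The concentration for 50% growth inhibition is given as GI50. TGI: total growth inhibition.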

Assays:
Assay in all cases: NCI-60 cell line screen, 48 h
NCI-H522 lung = test system: NCI-H522 lung
SK-MEL-5 melanoma = test system: SK-MEL-5 melanoma
786-0 renal = test system: 786-0 renal
SW-620 colon = test system: SW-620 colon
NCI-H460 lung = test system: NCI-H460 lung
U251 CNS = test system: U251 CNS
SK-OV-3 ovarian = test system: SK-OV-3 ovarian
EKVX NSCLC = test system: EKVX NSCLC
SK-MEL-28 melanoma = test system: SK-MEL-28 melanoma
OVCAR-3 ovarian = test system: OVCAR-3 ovarian

Compound	TGI (NCI-H522 lung)	TGI (SK-MEL-5 melanoma)	TGI (786-0 renal)	TGI (SW-620 colon)	TGI (NCI-H460 lung) [µM]	TGI (U251 CNS) [µM]	TGI (SK-OV-3 ovarian)	TGI (EKVX NSCLC) [µM]	TGI (SK-MEL-28 melanoma)	TGI (OVCAR-3 ovarian)	GI50 (NCI-H522 lung) [µM]	GI50 (SK-MEL-5 melanoma) [µM]	GI50 (786-0 renal) [µM]	GI50 (SW-620 colon) [µM]	GI50 (NCI-H460 lung) [µM]	GI50 (U251 CNS) [µM]	GI50 (SK-OV-3 ovarian) [µM]	GI50 (EKVX NSCLC) [µM]	GI50 (SK-MEL-28 melanoma) [µM]	GI50 (OVCAR-3 ovarian) [µM]
CCCC[C@H]1C(=O)O[C@H](C)[C@H](NC(=O)c2cccc(NC=O)c2O)C(=O)O[C@@H](C)[C@@H]1OC(=O)CC(C)C	31.6 µM	16.8 µM	35 µM	68.3 µM	27.4	21.9	54.4 µM	37.9	72.9 µM	24.6 µM	–	–	–	–	–	–	–	–	–	–
O=C1NC(=S)NC(=O)C1=Cc1cc2c(cc1[N+](=O)[O-])OCO2	> 100 µM	> 100 µM	> 100 µM	> 100 µM	> 100	> 100	> 100 µM	> 100	> 100 µM	> 100 µM	–	–	–	–	–	–	–	–	–	–
C[C@@H]1C=C(CCCCCCCCCCC[C@H](O)[C@@H]2CCC(=O)O2)C(=O)O1	49.2 µM	28.1 µM	> 100 µM	> 100 µM	> 100	81.7	> 100 µM	> 100	> 100 µM	44.7 µM	15.9	14.5	23.6	37.6	31.2	24.5	51.7	33.2	78.3	16.4
O=c1cccc(C#CC#C[C@H]2O[C@@H]2CO)o1	> 100 µM	2.95 µM	1.54 µM	0.596 µM	6.74	0.958	7.18 µM	4.18	1.71 µM	0.689 µM	3.56	1.5	0.637	0.238	1.08	0.355	2.66	1.97	0.37	0.286
OC1(C(O)(c2ccc(-c3ccccc3)cc2)c2ccc(-c3ccccc3)cc2)CCCCC1	> 100 µM	> 100 µM	> 100 µM	> 100 µM	> 100	> 100	> 100 µM	> 100	> 100 µM	> 100 µM	–	–	–	–	–	–	–	–	–	–
O=C(O)C(=Cc1ccnc2ccccc12)C(=O)O	> 100 µM	> 100 µM	> 100 µM	> 100 µM	> 100	> 100	> 100 µM	> 100	> 100 µM	> 100 µM	–	–	–	–	–	–	–	–	–	–
CC(C)N(C(=O)C12C3C4C5(C#N)C3C1(I)C5C42I)C(C)C (stereo not drawn)	> 100 µM	> 100 µM	> 64.7 µM	> 53.1 µM	> 100	> 100	> 100 µM	> 100	> 100 µM	> 100 µM	–	–	–	–	–	–	–	–	–	–
C=C1[C@@H](C)[C@H]2[C@H](Cc3ccccc3)NC(=O)[C@]23OC(=O)/C=C/[C@H](O)CCC[C@@H](C)C/C=C/[C@H]3[C@@H]1O	> 92.2 µM	63.1 µM	> 100 µM	> 100 µM	57.8	57.8	> 100 µM	> 100	> 100 µM	91.4 µM	–	–	–	–	–	–	–	–	–	–
COc1ccccc1-[n+]1cc(-c2ccc(-c3ccccc3)cc2)n2c1CCCCC2	9.03 µM	0.475 µM	11.5 µM	12.7 µM	11.5	15.7	5.82 µM	14.4	11.2 µM	12.4 µM	0.169	0.166	1.31	0.587	0.388	0.383	0.368	0.152	0.384	0.233
COC(=O)C1CC(C(=O)OC)c2nc3cc(C)ccc3nc21 (stereo not drawn)	> 100 µM	> 100 µM	> 100 µM	> 100 µM	> 100	> 100	> 100 µM	> 100	> 100 µM	> 100 µM	–	–	–	–	–	–	–	–	–	–
O=C1CCC(Cc2ccc(Cl)cc2Cl)C(=O)N1 (stereo not drawn)	> 100 µM	> 100 µM	> 100 µM	> 100 µM	> 100	> 100	> 100 µM	> 100	> 100 µM	> 100 µM	–	–	–	–	–	–	–	–	–	–
COC(=O)C(CCS(=O)(=O)CC(=O)C(=O)Nc1cccc(C(C)=O)c1)C(=O)OC	> 100 µM	> 100 µM	> 100 µM	> 100 µM	> 92	> 100	> 100 µM	> 100	> 100 µM	> 100 µM	–	–	–	–	–	–	–	–	–	–
O=C(O)CNc1c2ccccc2nc2ccccc12	> 100 µM	> 100 µM	> 100 µM	> 100 µM	> 100	> 100	> 100 µM	> 100	> 100 µM	> 100 µM	–	–	–	–	–	–	–	–	–	–
NC(=O)c1cnc(N[C@@H]2CCCC[C@@H]2N)nc1Nc1cccc(-n2nccn2)c1	17.5 µM	18 µM	17.6 µM	13.4 µM	12.6	18.2	15.1 µM	18.9	11.3 µM	18.4 µM	4.14	5.37	5.57	3.81	3.42	5.87	4.14	6.04	3.26	5.94
C/C(=N/S(=O)(=O)c1ccc(Cl)c(Cl)c1)OCC(C)(C)C	> 100 µM	> 100 µM	> 100 µM	> 100 µM	> 100	> 100	> 100 µM	> 100	> 100 µM	> 100 µM	–	–	–	–	–	–	–	–	–	–
CC1=C(/C=C/C(C)=C\C=C\C(C)=C\C(=O)Nc2ccc3c(c2)OCO3)C(C)(C)CCC1	> 100 µM	68.1 µM	> 100 µM	> 100 µM	> 100	> 100	> 100 µM	> 100	> 100 µM	> 100 µM	14.1	16.2	40.2	> 100	50.5	77.5	> 100	62.3	> 100	> 100
O=C1c2cccc3cc([N+](=O)[O-])cc(c23)C(=O)N1CCNCCNCCNCCN1C(=O)c2cccc3cc([N+](=O)[O-])cc(c23)C1=O	0.101 µM and 0.317 µM	1.52 µM and 0.174 µM	1.08 µM and 0.612 µM	0.449 µM and 0.534 µM	0.0413	0.0206	0.341 µM and 0.598 µM	0.88	0.338 µM and 0.279 µM	0.343 µM and 0.94 µM	< 0.001	0.0176	–	–	–	–	0.0273	–	–	–
